# From US20020137929A1, “1 - (3-heterocyclylphenyl) isothiourea, -isourea, -guanidine and -amidine herbicidal agents” (Intellectual Property Department, BASF Aktiengesellschaft, priority 1998, published 2002)
# Tests used:
# AMBEL (Ragweed, Common) = experiment: Postemergence herbicidal evaluation; type: in vivo, Ambrosia artemisifolia; conditions: for AMBEL herbicidal rating: postemergence
# Outline: (§1)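 Compound is applied as a foliar spray to seedlings about two weeks old, formulated in equal parts acetone and water with 0.5% TWEEN 20 and delivered at 40 psi to give about 0.0156–0.500 kg per hectare. Injury is rated visually 0–9 after four to five weeks.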
# CASOB (Sicklepod) = experiment: Postemergence herbicidal evaluation; type: in vivo, Cassia obtusifolia; conditions: for CASOB herbicidal rating: postemergence
# Outline: as §1
# GALAP (Galium) [1] = experiment: Postemergence herbicidal evaluation; type: in vivo, Galium aparine; conditions: for GALAP herbicidal rating: postemergence
# Outline: as §1
# [2] = test system: GLXMAW (Soybean, Williams); experiment: Postemergence herbicidal evaluation; type: in vivo, Glycine max, (L.) Merr. cv Williams; conditions: for GLXMAW herbicidal rating: postemergence
# Outline: as §1
# [3] = test system: TRZAWR (Wheat, Winter, cv Riband); experiment: Postemergence herbicidal evaluation; type: in vivo, Triticum aestivum; conditions: for TRZAWR herbicidal rating: postemergence
# Outline: as §1
# GALAP (Galium) [4] = experiment: Preemergence herbicidal evaluation; type: in vivo, Galium aparine; conditions: rated 4-5 weeks after treatment
# Outline: (§2)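 Steps: mix seeds into potting soil; plant atop ~1 inch soil; spray compound in aqueous acetone (~0.0156-0.500 kg/ha equivalent); maintain in greenhouse with watering; rate visually 0-9 versus control at 4-5 weeks.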
# SETVI (Foxtail, Green) = experiment: Preemergence herbicidal evaluation; type: in vivo, Setaria viridis; conditions: rated 4-5 weeks after treatment
# Outline: as §2
# ORYSAT (Rice, Tebonnet) = experiment: Preemergence herbicidal evaluation; type: in vivo, Oryza sativa, (L.) Tebonnet; conditions: rated 4-5 weeks after treatment
# Outline: as §2
# [5] = test system: ECHORC (Watergrass (Calif.)); experiment: Preemergence weed control under flooded paddy conditions; type: in vivo, Echinochloa oryzoides; conditions: rated 3-4 weeks after treatment
# Outline: (§3)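 Visual injury scored 0-9 against control three to four weeks post-treatment, greenhouse-grown. Application: acetone/water (50/50) solutions dosed directly into flood water (1.5-3 cm over silt loam, planted top 0.5 cm), roughly 0.0313 to 0.500 kg/ha active ingredient.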
# CYPSE (Flatsedge) = experiment: as above; type: in vivo, Cyperus serotinus; conditions: rated 3-4 weeks after treatment
# Outline: as §3
# MOOVA (Monochoria) = experiment: as above; type: in vivo, Monochoria vaginalis; conditions: rated 3-4 weeks after treatment
# Outline: as §3
# [6] = test system: SAGPY (Arrowhead (Pygmaea)); experiment: as above; type: in vivo, Sagittaria pygmaea; conditions: rated 3-4 weeks after treatment
# Outline: as §3
# [7] = test system: ECHORC (Watergrass (Calif.)); experiment: Postemergence weed control under flooded paddy conditions; type: in vivo, Echinochloa oryzoides; conditions: postemergence weeds, rated 3 to 4 weeks after treatment
# Outline: (§4)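 Injury ratings (0–9 scale covering stand, vigor, malformation, size, chlorosis and overall appearance versus control) were made three to four weeks after treatment. Test material, about 0.0313 to 0.500 kg/ha a.i. in 50/50 v/v aqueous/acetone, was added to flood water 1.5 to 3 cm deep over 3 to 5 cm weeds and 1.5 to 2.5 leaf rice.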
# [8] = test system: SAGPY (Arrowhead (Pygmaea)); experiment: as above; type: in vivo, Sagittaria pygmaea; conditions: postemergence weeds, rated 3 to 4 weeks after treatment
# Outline: as §4
compound,measurement,setting,value
"C=CCN1C(=O)C(CC(=O)OC)SC1=Nc1cc(-n2c(=O)cc(C(F)(F)F)n(C)c2=O)c(F)cc1Cl (centres unmarked) [Compound 64, Methyl 3-allyl-2-{{2-chloro-5-[3,6-dihydro-3-methyl-2,6-dioxo-4-(trifluoromethyl)-1(2H)-pyrimidinyl]-4-fluorophenyl}imino}-4-oxo-5-thiazolidineacetate]",Postemergence herbicidal rating AMBEL,"AMBEL (Ragweed, Common); Rate 0.0158 kg/ha",9.0
same,Postemergence herbicidal rating AMBEL,"AMBEL (Ragweed, Common); Rate 0.0315 kg/ha",9.0
same,Postemergence herbicidal rating AMBEL,"AMBEL (Ragweed, Common); Rate 0.0630 kg/ha",9.0
same,Postemergence herbicidal rating CASOB,CASOB (Sicklepod); Rate 0.0158 kg/ha,2.0
same,Postemergence herbicidal rating CASOB,CASOB (Sicklepod); Rate 0.0315 kg/ha,2.0
same,Postemergence herbicidal rating CASOB,CASOB (Sicklepod); Rate 0.0630 kg/ha,3.0
same,Postemergence herbicidal rating GALAP,GALAP (Galium) [1]; Rate 0.0158 kg/ha,5.0
same,Postemergence herbicidal rating GALAP,GALAP (Galium) [1]; Rate 0.0315 kg/ha,7.0
same,Postemergence herbicidal rating GALAP,GALAP (Galium) [1]; Rate 0.0630 kg/ha,7.0
same,Postemergence herbicidal rating GLXMAW,[2]; Rate 0.0158 kg/ha,7.0
same,Postemergence herbicidal rating GLXMAW,[2]; Rate 0.0315 kg/ha,7.5
same,Postemergence herbicidal rating GLXMAW,[2]; Rate 0.0630 kg/ha,7.5
same,Postemergence herbicidal rating TRZAWR,[3]; Rate 0.0158 kg/ha,6.0
same,Postemergence herbicidal rating TRZAWR,[3]; Rate 0.0315 kg/ha,6.0
same,Postemergence herbicidal rating TRZAWR,[3]; Rate 0.0630 kg/ha,7.0
same,Preemergence herbicidal rating GALAP,GALAP (Galium) [4]; rate 0.0156 kg/ha,0.0
same,Preemergence herbicidal rating GALAP,GALAP (Galium) [4]; rate 0.0313 kg/ha,0.0
same,Preemergence herbicidal rating GALAP,GALAP (Galium) [4]; rate 0.0625 kg/ha,1.0
same,Preemergence herbicidal rating GALAP,GALAP (Galium) [4]; rate 0.2500 kg/ha,7.0
same,Preemergence herbicidal rating SETVI,"SETVI (Foxtail, Green); rate 0.0156 kg/ha",0.0
same,Preemergence herbicidal rating SETVI,"SETVI (Foxtail, Green); rate 0.0313 kg/ha",0.0
same,Preemergence herbicidal rating SETVI,"SETVI (Foxtail, Green); rate 0.0625 kg/ha",9.0
same,Preemergence herbicidal rating SETVI,"SETVI (Foxtail, Green); rate 0.1250 kg/ha",7.0
same,Preemergence herbicidal rating SETVI,"SETVI (Foxtail, Green); rate 0.2500 kg/ha",9.0
same,Preemergence herbicidal rating ORYSAT,"ORYSAT (Rice, Tebonnet); rate 0.0156 kg/ha",0.0
same,Preemergence herbicidal rating ORYSAT,"ORYSAT (Rice, Tebonnet); rate 0.0313 kg/ha",0.0
same,Preemergence herbicidal rating ORYSAT,"ORYSAT (Rice, Tebonnet); rate 0.0625 kg/ha",1.0
same,Preemergence herbicidal rating ORYSAT,"ORYSAT (Rice, Tebonnet); rate 0.1250 kg/ha",1.0
same,Preemergence herbicidal rating ORYSAT,"ORYSAT (Rice, Tebonnet); rate 0.2500 kg/ha",5.0
same,ECHORC herbicidal effect rating,[5]; 0.0313 kg/ha,5.0
same,ECHORC herbicidal effect rating,[5]; 0.0625 kg/ha,6.0
same,ECHORC herbicidal effect rating,[5]; 0.1250 kg/ha,6.0
same,ECHORC herbicidal effect rating,[5]; 0.2500 kg/ha,9.0
same,CYPSE herbicidal effect rating,CYPSE (Flatsedge); 0.0313 kg/ha,0.0
same,CYPSE herbicidal effect rating,CYPSE (Flatsedge); 0.0625 kg/ha,0.0
same,CYPSE herbicidal effect rating,CYPSE (Flatsedge); 0.1250 kg/ha,0.0
same,CYPSE herbicidal effect rating,CYPSE (Flatsedge); 0.2500 kg/ha,0.0
same,MOOVA herbicidal effect rating,MOOVA (Monochoria); 0.0313 kg/ha,7.0
same,MOOVA herbicidal effect rating,MOOVA (Monochoria); 0.0625 kg/ha,9.0
same,MOOVA herbicidal effect rating,MOOVA (Monochoria); 0.1250 kg/ha,9.0
same,MOOVA herbicidal effect rating,MOOVA (Monochoria); 0.2500 kg/ha,9.0
same,SAGPY herbicidal effect rating,[6]; 0.0313 kg/ha,0.0
same,SAGPY herbicidal effect rating,[6]; 0.0625 kg/ha,3.0
same,SAGPY herbicidal effect rating,[6]; 0.1250 kg/ha,5.0
same,SAGPY herbicidal effect rating,[6]; 0.2500 kg/ha,8.0
same,Herbicidal rating ECHORC,[7]; Rate 0.0313 kg/ha,5.0
same,Herbicidal rating ECHORC,[7]; Rate 0.0625 kg/ha,6.0
same,Herbicidal rating ECHORC,[7]; Rate 0.1250 kg/ha,6.0
same,Herbicidal rating ECHORC,[7]; Rate 0.2500 kg/ha,9.0
same,Herbicidal rating SAGPY,[8]; Rate 0.0313 kg/ha,0.0
same,Herbicidal rating SAGPY,[8]; Rate 0.0625 kg/ha,3.0
same,Herbicidal rating SAGPY,[8]; Rate 0.1250 kg/ha,5.0
same,Herbicidal rating SAGPY,[8]; Rate 0.2500 kg/ha,8.0
"C=CCOC(=O)CC1SC(=Nc2cc(-n3c(=O)cc(C(F)(F)F)n(C)c3=O)c(F)cc2Cl)N(CC=C)C1=O (centres unmarked) [Compound 65, Allyl 3-allyl-2-{(2-chloro-5-[3,6-dihydro-3-methyl-2,6-dioxo-4-(trifluoromethyl)-1(2H)-pyrimidinyl]-4-fluorophenyl}imino}-4-oxo-5-thiazolidineacetate]",AMBEL herbicidal rating,"AMBEL (Ragweed, Common); rate 0.0158 kg/ha",9.0
same,AMBEL herbicidal rating,"AMBEL (Ragweed, Common); rate 0.0315 kg/ha",7.0
same,AMBEL herbicidal rating,"AMBEL (Ragweed, Common); rate 0.0630 kg/ha",9.0
same,CASOB herbicidal rating,CASOB (Sicklepod); rate 0.0158 kg/ha,0.0
same,CASOB herbicidal rating,CASOB (Sicklepod); rate 0.0315 kg/ha,2.0
same,CASOB herbicidal rating,CASOB (Sicklepod); rate 0.0630 kg/ha,3.0
same,GALAP herbicidal rating,GALAP (Galium) [1]; rate 0.0158 kg/ha,2.0
same,GALAP herbicidal rating,GALAP (Galium) [1]; rate 0.0315 kg/ha,5.0
same,GALAP herbicidal rating,GALAP (Galium) [1]; rate 0.0630 kg/ha,9.0
same,GLXMAW herbicidal rating,[2]; rate 0.0158 kg/ha,7.5
same,GLXMAW herbicidal rating,[2]; rate 0.0315 kg/ha,8.0
same,GLXMAW herbicidal rating,[2]; rate 0.0630 kg/ha,7.5
same,TRZAWR herbicidal rating,[3]; rate 0.0158 kg/ha,4.0
same,TRZAWR herbicidal rating,[3]; rate 0.0315 kg/ha,7.0
same,TRZAWR herbicidal rating,[3]; rate 0.0630 kg/ha,7.0
same,Preemergence herbicidal rating GALAP,GALAP (Galium) [4]; rate 0.0156 kg/ha,0.0
same,Preemergence herbicidal rating GALAP,GALAP (Galium) [4]; rate 0.0313 kg/ha,0.0
same,Preemergence herbicidal rating GALAP,GALAP (Galium) [4]; rate 0.0625 kg/ha,0.0
same,Preemergence herbicidal rating GALAP,GALAP (Galium) [4]; rate 0.1250 kg/ha,1.0
same,Preemergence herbicidal rating GALAP,GALAP (Galium) [4]; rate 0.2500 kg/ha,9.0
same,Preemergence herbicidal rating SETVI,"SETVI (Foxtail, Green); rate 0.0156 kg/ha",0.0
same,Preemergence herbicidal rating SETVI,"SETVI (Foxtail, Green); rate 0.0313 kg/ha",1.0
same,Preemergence herbicidal rating SETVI,"SETVI (Foxtail, Green); rate 0.0625 kg/ha",2.0
same,Preemergence herbicidal rating SETVI,"SETVI (Foxtail, Green); rate 0.1250 kg/ha",7.0
same,Preemergence herbicidal rating SETVI,"SETVI (Foxtail, Green); rate 0.2500 kg/ha",9.0
same,Preemergence herbicidal rating ORYSAT,"ORYSAT (Rice, Tebonnet); rate 0.0156 kg/ha",0.0
same,Preemergence herbicidal rating ORYSAT,"ORYSAT (Rice, Tebonnet); rate 0.0313 kg/ha",0.0
same,Preemergence herbicidal rating ORYSAT,"ORYSAT (Rice, Tebonnet); rate 0.0625 kg/ha",1.0
same,Preemergence herbicidal rating ORYSAT,"ORYSAT (Rice, Tebonnet); rate 0.1250 kg/ha",1.0
same,Preemergence herbicidal rating ORYSAT,"ORYSAT (Rice, Tebonnet); rate 0.2500 kg/ha",6.0
same,ECHORC herbicidal effect rating,[5]; 0.0313 kg/ha,5.0
same,ECHORC herbicidal effect rating,[5]; 0.0625 kg/ha,5.0
same,ECHORC herbicidal effect rating,[5]; 0.1250 kg/ha,6.0
same,ECHORC herbicidal effect rating,[5]; 0.2500 kg/ha,7.0
same,CYPSE herbicidal effect rating,CYPSE (Flatsedge); 0.0313 kg/ha,0.0
same,CYPSE herbicidal effect rating,CYPSE (Flatsedge); 0.0625 kg/ha,0.0
same,CYPSE herbicidal effect rating,CYPSE (Flatsedge); 0.1250 kg/ha,0.0
same,CYPSE herbicidal effect rating,CYPSE (Flatsedge); 0.2500 kg/ha,0.0
same,MOOVA herbicidal effect rating,MOOVA (Monochoria); 0.0313 kg/ha,9.0
same,MOOVA herbicidal effect rating,MOOVA (Monochoria); 0.0625 kg/ha,9.0
same,MOOVA herbicidal effect rating,MOOVA (Monochoria); 0.1250 kg/ha,9.0
same,MOOVA herbicidal effect rating,MOOVA (Monochoria); 0.2500 kg/ha,9.0
same,SAGPY herbicidal effect rating,[6]; 0.0313 kg/ha,2.0
same,SAGPY herbicidal effect rating,[6]; 0.0625 kg/ha,4.0
same,SAGPY herbicidal effect rating,[6]; 0.1250 kg/ha,5.0
same,SAGPY herbicidal effect rating,[6]; 0.2500 kg/ha,7.0
same,Herbicidal rating ECHORC,[7]; Rate 0.0313 kg/ha,5.0
same,Herbicidal rating ECHORC,[7]; Rate 0.0625 kg/ha,5.0
same,Herbicidal rating ECHORC,[7]; Rate 0.1250 kg/ha,6.0
same,Herbicidal rating ECHORC,[7]; Rate 0.2500 kg/ha,7.0
same,Herbicidal rating SAGPY,[8]; Rate 0.0313 kg/ha,2.0
same,Herbicidal rating SAGPY,[8]; Rate 0.0625 kg/ha,4.0
same,Herbicidal rating SAGPY,[8]; Rate 0.1250 kg/ha,5.0
same,Herbicidal rating SAGPY,[8]; Rate 0.2500 kg/ha,7.0
